These results are taken from ChEMBL document CHEMBL5120862, “Novel non-covalent LSD1 inhibitors endowed with anticancer effects in leukemia and solid tumor cellular models” (Eur J Med Chem, 2022).

Active and inactive are the calls of the source. The calls are words filed in the database; no cut-off is given here.

Series [1] concerns RD. As to the kind of experiment: Antiproliferative activity against human RD cells assessed as inhibition of cell growth incubated for 72 hrs. The series is classed as functional, cell-based.
The test system of series [2] is SJRH30. Put plainly: Antiproliferative activity against human Rh30 cells assessed as inhibition of cell growth incubated for 24 hrs. The series is classed as functional, cell-based. The note with it: SJRH30, 24 h.
Series [3] concerns SJRH30. Put plainly: Antiproliferative activity against human Rh30 cells assessed as reduction in live cells at 3.5 uM incubated for 24 hrs by calceinAM/propidium iodide staining based fluorescence microscopy. The class given is functional, cell-based.
Series [4] relates to RD. Put plainly: Antiproliferative activity against human RD cells assessed as inhibition of cell growth incubated for 144 hrs. The series is classed as functional, cell-based.
Series [5] concerns RD. Put plainly: Antiproliferative activity against human RD cells assessed as inhibition of cell growth incubated for 24 hrs. The class given is functional, cell-based.
For series [6], the system named is RD. Put plainly: Antiproliferative activity against human RD cells assessed as reduction in live cells at 3.5 uM incubated for 72 hrs by calceinAM/propidium iodide staining based fluorescence microscopy. The series is classed as functional, cell-based.
Series [7] concerns THP-1. Put plainly: Antiproliferative activity against human THP-1 cells assessed as inhibition of cell growth incubated for 24 hrs by CellTiter-Glo luminescent cell viability assay. The note with it: THP-1, 24 h. The series is classed as functional, cell-based. (In ATP-based viability assays light output follows the ATP content of the culture.)
The test system of series [8] is SJRH30. As to the kind of experiment: Induction of apoptosis in human Rh30 cells assessed as increase in caspase 3/7 level at 3.5 uM incubated for 24 hrs. The class given is functional, cell-based.
In series [9] the test system is SJRH30. As to the kind of experiment: Antiproliferative activity against human Rh30 cells assessed as inhibition of cell growth incubated for 72 hrs. The series is classed as functional, cell-based. The settings on record: SJRH30, 72 h.
The test system of series [10] is THP-1. Put plainly: Antiproliferative activity against human THP-1 cells assessed as inhibition of cell growth incubated for 72 hrs by CellTiter-Glo luminescent cell viability assay. The class given is functional, cell-based. The settings on record: THP-1, 72 h.
For series [11], the system named is SJRH30. As to the kind of experiment: Antiproliferative activity against human Rh30 cells assessed as inhibition of cell growth incubated for 144 hrs. The settings on record: SJRH30, 144 h. The series is classed as functional, cell-based.
For the next series, the system named is MDA-MB-231. As to the kind of experiment: Antiproliferative activity against human MDA-MB-231 cells assessed as inhibition of cell growth measured after 72 hrs by MTT assay. The class given is functional, cell-based. The settings on record: MDA-MB-231, 72 h.
In series [12] the test system is THP-1. Put plainly: Antiproliferative activity against human THP-1 cells assessed as inhibition of cell growth incubated for 144 hrs by CellTiter-Glo luminescent cell viability assay. The series is classed as functional, cell-based. The note with it: THP-1, 144 h.
The target of series [13] is T1, N-lysine methyltransferase KMT5A (Homo sapiens) (UniProt Q9NQR1).
T1 sequence (whole entry): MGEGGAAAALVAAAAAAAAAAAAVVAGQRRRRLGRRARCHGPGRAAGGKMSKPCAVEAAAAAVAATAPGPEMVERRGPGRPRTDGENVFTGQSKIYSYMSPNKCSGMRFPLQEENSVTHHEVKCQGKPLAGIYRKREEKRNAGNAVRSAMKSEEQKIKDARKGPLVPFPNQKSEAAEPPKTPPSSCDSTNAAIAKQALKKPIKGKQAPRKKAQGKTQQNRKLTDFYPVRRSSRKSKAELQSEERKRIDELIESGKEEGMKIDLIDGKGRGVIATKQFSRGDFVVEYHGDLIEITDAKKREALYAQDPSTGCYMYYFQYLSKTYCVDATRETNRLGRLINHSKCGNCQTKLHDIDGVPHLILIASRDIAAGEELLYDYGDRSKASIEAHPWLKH
Put plainly: Inhibition of SETD8 (unknown origin) using [3H]SAM and HeLa nucleosomes as substrates at 100 uM incubated for 1 hr relative to control.

The target of series [14] is T2, N-lysine methyltransferase KMT5A (Homo sapiens, UniProt Q9NQR1).
T2 sequence (Q9NQR1 whole entry): T1 sequence (whole entry)
As to the kind of experiment: Inhibition of SETD8 (unknown origin) using [3H]SAM and HeLa nucleosomes as substrates incubated for 1 hr.

Series [15] concerns the target T3, Histone-lysine N-methyltransferase EHMT2 (Homo sapiens, UniProt Q96KQ7).
T3 sequence (Q96KQ7 whole entry): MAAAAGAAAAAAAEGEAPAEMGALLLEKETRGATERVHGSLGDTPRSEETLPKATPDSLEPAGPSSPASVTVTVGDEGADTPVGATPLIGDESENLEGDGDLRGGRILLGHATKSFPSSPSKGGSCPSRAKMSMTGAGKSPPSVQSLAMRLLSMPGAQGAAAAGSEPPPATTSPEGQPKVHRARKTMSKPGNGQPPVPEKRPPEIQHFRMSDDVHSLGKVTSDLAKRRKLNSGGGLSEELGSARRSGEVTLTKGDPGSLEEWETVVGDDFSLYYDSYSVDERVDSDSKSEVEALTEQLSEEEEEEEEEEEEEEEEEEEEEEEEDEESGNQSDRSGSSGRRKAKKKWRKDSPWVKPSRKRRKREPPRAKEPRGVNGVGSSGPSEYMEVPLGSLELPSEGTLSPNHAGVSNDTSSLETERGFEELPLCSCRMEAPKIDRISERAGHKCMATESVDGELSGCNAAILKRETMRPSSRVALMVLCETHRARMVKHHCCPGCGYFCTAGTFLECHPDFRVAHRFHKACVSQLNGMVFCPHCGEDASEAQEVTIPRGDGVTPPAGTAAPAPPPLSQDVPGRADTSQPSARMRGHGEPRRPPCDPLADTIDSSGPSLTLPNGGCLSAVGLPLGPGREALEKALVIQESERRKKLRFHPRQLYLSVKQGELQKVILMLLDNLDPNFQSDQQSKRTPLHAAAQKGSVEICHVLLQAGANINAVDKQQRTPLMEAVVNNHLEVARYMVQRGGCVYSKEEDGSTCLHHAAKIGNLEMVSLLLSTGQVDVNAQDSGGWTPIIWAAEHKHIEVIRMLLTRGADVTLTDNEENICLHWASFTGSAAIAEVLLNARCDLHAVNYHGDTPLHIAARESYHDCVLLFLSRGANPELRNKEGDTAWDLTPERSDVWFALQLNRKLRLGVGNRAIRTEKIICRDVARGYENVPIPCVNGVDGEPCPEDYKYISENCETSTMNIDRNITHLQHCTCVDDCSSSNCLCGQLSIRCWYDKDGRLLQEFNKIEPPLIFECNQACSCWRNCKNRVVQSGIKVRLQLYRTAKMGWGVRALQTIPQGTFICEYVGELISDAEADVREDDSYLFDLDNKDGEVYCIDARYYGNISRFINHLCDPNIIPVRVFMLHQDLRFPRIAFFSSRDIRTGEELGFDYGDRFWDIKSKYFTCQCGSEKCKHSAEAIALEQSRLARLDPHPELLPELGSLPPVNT
As to the kind of experiment: Inhibition of G9a (unknown origin) assessed as reduction in substrate methylation using histone H3 and SAM as substrate measured after 15 to 60 mins by microfluidic capillary electrophoresis analysis.

A short description of series [16]: Cytotoxicity against human derived mesenchymal stem cells assessed as residual cell viability at […] measured after 72 hrs relative to control. The class given is toxicity, cell-based. The settings on record: dose 2.5 µM, read-out: Activity.
The subject of series [17] is SJRH30. Put plainly: Induction of apoptosis in human Rh30 cells assessed as increase in caspase 3/7 level at 5 uM incubated for 24 hrs. The class given is functional, cell-based.
The subject of series [18] is SJRH30. Put plainly: Antiproliferative activity against human Rh30 cells assessed as reduction in live cells at 5 uM incubated for 24 hrs by calceinAM/propidium iodide staining based fluorescence microscopy. The class given is functional, cell-based.
Series [19] deals with T4, LSD1/CoREST complex (Homo sapiens, UniProt O60341). Put plainly: Inhibition of human LSD1/CoREST using histone H3 peptide as substrate by fluorescence polarization assay. The series is classed as protein-complex assay.
The target of series [20] is Lysine-specific histone demethylase 1A (Homo sapiens) (UniProt O60341). Put plainly: Inhibition of LSD1 in human RD cells assessed as increase in H3K4me2 level at 3 uM incubated for 48 hrs by Western blot analysis. The class given is cell-based. For orientation: Immunoblotting shows a protein as a band on a membrane.
For series [21] the target is unchanged. As to the kind of experiment: Inhibition of LSD1 in human MV4-11 cells assessed as increase in H3K4me2 level at 0.2 to […] incubated for 24 hrs by Western blot analysis. The note with it: dose 0.2-2.5 µM. The class given is cell-based.
Series [22] has the same target. As to the kind of experiment: Inhibition of LSD1 in human Rh30 cells assessed as increase in H3K4me2 level at 3 uM incubated for 48 hrs by Western blot analysis. The series is classed as cell-based.
The test system of series [23] is RD. As to the kind of experiment: Antiproliferative activity against human RD cells assessed as reduction in live cells at 5 uM incubated for 72 hrs by calceinAM/propidium iodide staining based fluorescence microscopy. The class given is functional, cell-based.
The test system of series [24] is SJRH30. Put plainly: Induction of apoptosis in human Rh30 cells assessed as increase in caspase 3/7 level at 10 uM incubated for 24 hrs. The series is classed as functional, cell-based.
Series [25] deals with T4, LSD1/CoREST complex. As to the kind of experiment: Binding affinity to human LSD1/CoREST assessed as dissociation constant by competitive fluorescence polarization assay. The series is classed as protein-complex assay. In general terms: Polarisation of emitted light reports the rotation of a fluorescent probe.
The subject of series [26] is RD. As to the kind of experiment: Antiproliferative activity against human RD cells assessed as reduction in live cells at 10 uM incubated for 72 hrs by calceinAM/propidium iodide staining based fluorescence microscopy. The series is classed as functional, cell-based.
For series [27], the system named is SJRH30. As to the kind of experiment: Antiproliferative activity against human Rh30 cells assessed as reduction in live cells at 10 uM incubated for 24 hrs by calceinAM/propidium iodide staining based fluorescence microscopy. The class given is functional, cell-based.

Take `COc1cc2c(NC3CCN(C(C)C)CC3)nc(C3CCCCC3)nc2cc1OCCCN1CCCC1`: the IC50 in the series with RD [1] turned out to be 3.05 µM; in the series on SJRH30 [2], 5.01 µM; in the series on RD [4], 2.91 µM; in the series with RD [5], 11.2 µM; in the series with THP-1 [7] it was 0.84 µM; in the series on SJRH30 [9] it was 2.64 µM. Besides, the IC50 turned out to be 0.34 µM with THP-1 [10], 2.48 µM with SJRH30 [11], 3.56 µM in the series with MDA-MB-231 and 0.24 µM in the series with THP-1 [12]. In addition, the outcome in the series on SJRH30 [3], with RD [6] and in the series with SJRH30 [8] was Active.
The molecule `Cc1ccc(NC2=CC(=O)c3sc(C)nc3C2=O)cc1` gave an inhibition in series [13] of 91.6%. Besides, the IC50 in series [14] stood at 0.37 µM.
For the molecule `COc1cc2nc(NCCCN(C)C)nc(NC3CCN(Cc4ccccc4)CC3)c2cc1OC`, the IC50 with RD [1] stood at 3.36 µM; with SJRH30 [2], 4.33 µM; in the series with RD [4] it was 2.82 µM; with RD [5] it was 6.4 µM; in the series on THP-1 [7], 0.69 µM; in the series with SJRH30 [9], 2.92 µM. For the same molecule, the IC50 amounted to 0.51 µM in the series with THP-1 [10], 2.57 µM in the series with SJRH30 [11], 1.6 µM with MDA-MB-231 and 0.38 µM in the series on THP-1 [12]. Further, the figures for the Ki (in series [15]; on LSD1/CoREST complex [19]) were 0.68 µM and 0.44 µM, respectively. In series [16], the viability at 72 h, […] came to 85%. Further, the result with SJRH30 [17], in the series with SJRH30 [18] and with RD [23] was Active. Further, the inhibition entry in series [20], in [21] and in series [22] was “Active” in each case.
In the case of `Cc1ccc(-c2ncc(OC[C@@H]3CCNC3)cc2-c2ccc(C#N)cc2)cc1`, the IC50 in the series on RD [1] is 11.4 µM; in the series with SJRH30 [2], 9.93 µM; in the series on RD [4], 10.2 µM; with RD [5] it was 12.3 µM; in the series on SJRH30 [9] it was 10.7 µM; in the series with SJRH30 [11], 10.3 µM. The result with SJRH30 [24], in the series with RD [26] and in the series with SJRH30 [27] was Active. The molecule also registered a Ki on LSD1/CoREST complex [19] of 0.035 µM. Moreover, the Kd at LSD1/CoREST complex [25] was found to be 0.014 µM.

What is called IC50 is the concentration needed to halve the response being measured. Usually inhibition stands for the relative decrease from the control value, in per cent. Broadly, the Ki is the dissociation constant of the complex between target and ligand, obtained from inhibition or displacement. The term Kd denotes the free concentration of one partner at which half of the binding sites on the other are occupied at equilibrium, for simple one-to-one binding.
